≈ marks a conversion by molar mass, not a printed value. Where a name gives a salt, the structure may show the parent alone.
Columns and labels:
HEK293 = experiment: cells; type: functional, Homo sapiens, ATCC CRL1573; conditions: Homo sapiens, ATCC CRL1573, HEK293; ASSAY_TEST Inhibition of Cell Viability; detection method Resazurin; Fluorescence (ex560/em590); MEDIA DMEM with 10% FBS; plate type 384well; TC; CORNING #3712; time 18 hr; read-out: CC50
Pseudomonas aeruginosa [1] = experiment: Antibacterial activity against Pseudomonas aeruginosa PAO397 [PAO1 d(mexAB-oprM) d(mexCD-oprJ) d(mexEF-oprN) d(mexJKL) d(mexXY) d(opmH)] (CO-ADD:GN_211); MIC in CAMBH media using NBS plates, by OD(600); type: functional; conditions: ASSAY_TEST Inhibition of Bacterial Growth, detection method Absorption (OD600), MEDIA CAMHB, plate type 384well, CORNING #3640, time 18 hr
Staphylococcus aureus = experiment: microbe, parasite or virus in culture; conditions: ATCC 43300, 18 h, ASSAY_TEST Inhibition of Bacterial Growth, detection method Absorption (OD600), MEDIA CAMHB, plate type 384well, NBS, CORNING #3640
Description: Antibacterial activity against Staphylococcus aureus MRSA ATCC 43300 (CO-ADD:GP_020); MIC in CAMBH media, using NBS plates, by OD(600)

Escherichia coli = experiment: microbe, parasite or virus in culture; conditions: ATCC 25922, 18 h, ASSAY_TEST Inhibition of Bacterial Growth, detection method Absorption (OD600), MEDIA CAMHB, plate type 384well, NBS, CORNING #3640
Description: Antibacterial activity against Escherichia coli ATCC 25922 (CO-ADD:GN_001); MIC in CAMBH media using NBS plates, by OD(600)

Klebsiella pneumoniae = experiment: microbe, parasite or virus in culture; conditions: ATCC 700603, 18 h, ASSAY_TEST Inhibition of Bacterial Growth, detection method Absorption (OD600), MEDIA CAMHB, plate type 384well, NBS, CORNING #3640
Description: Antibacterial activity against Klebsiella pneumoniae MDR ATCC 70063 (CO-ADD:GN_003); MIC in CAMBH media using NBS plates, by OD(600)

Pseudomonas aeruginosa [2] = experiment: microbe, parasite or virus in culture; conditions: ATCC 27853, 18 h, ASSAY_TEST Inhibition of Bacterial Growth, detection method Absorption (OD600), MEDIA CAMHB, plate type 384well, NBS, CORNING #3640
Description: Antibacterial activity against Pseudomonas aeruginosa ATCC 27853 (CO-ADD:GN_042); MIC in CAMBH media using NBS plates, by OD(600)

Acinetobacter baumannii = experiment: microbe, parasite or virus in culture; conditions: ATCC 19606, 18 h, ASSAY_TEST Inhibition of Bacterial Growth, detection method Absorption (OD600), MEDIA CAMHB, plate type 384well, NBS, CORNING #3640
Description: Antibacterial activity against Acinetobacter baumannii ATCC 19606 (CO-ADD:GN_034); MIC in CAMBH media using NBS plates, by OD600

Candida albicans = experiment: microbe, parasite or virus in culture; conditions: ATCC 90028, ASSAY_TEST Inhibition of Fungal Growth, detection method Absorption (OD530), plate type 384well, NBS, CORNING #3640
Description: Antifungal activity against Candida albicans ATCC 90028 (CO-ADD:FG_001); MIC in YNB media using NBS plates, by OD630

Description for Cryptococcus neoformans: Antifungal activity against Cryptococcus neoformans H99 ATCC 208821 (CO-ADD:FG_002); MIC in YNB media using NBS plates, by Resazurin OD(600-570)

MIC (Pseudomonas aeruginosa [1]) [µM]	MIC (Cryptococcus neoformans) [µM]	MIC (Staphylococcus aureus) [µM]	MIC (Escherichia coli) [µM]	MIC (Klebsiella pneumoniae) [µM]	MIC (Pseudomonas aeruginosa [2]) [µM]	MIC (Acinetobacter baumannii) [µM]	MIC (Candida albicans) [µM]	SMILES	CC50 (HEK293) [µM]
> 20	> 20	> 20	> 20	> 20	> 20	> 20	> 20	C[C@H](Cn1cnc2c(N)ncnc21)OCP(=O)(O)O [TENOFOVIR ANHYDROUS]	> 20
> 20	> 20	> 20	> 20	> 20	> 20	> 20	> 20	COc1ccc(C[C@@H](C)[C@@H](C)Cc2ccc(OC)c(OC)c2)cc1OC [TERAMEPROCOL]	> 20
> 20	20	> 20	> 20	> 20	> 20	> 20	> 20	CN(C/C=C/C#CC(C)(C)C)Cc1cccc2ccccc12 [TERBINAFINE HYDROCHLORIDE]	> 20
> 20	> 20	> 20	> 20	> 20	> 20	> 20	> 20	O=C1CCC(N2C(=O)c3ccccc3C2=O)C(=O)N1 (stereo not drawn) [THALIDOMIDE]	> 20
1.25 (≈ 0.584 µg/mL)	> 20	> 20	2.5 (≈ 1.17 µg/mL)	> 20	20 (≈ 9.35 µg/mL)	2.5 (≈ 1.17 µg/mL)	> 20	NC[C@H]1O[C@H](O[C@H]2[C@H](O)[C@@H](O[C@H]3O[C@H](CO)[C@@H](O)[C@H](N)[C@H]3O)[C@H](N)C[C@@H]2N)[C@H](N)C[C@@H]1O [TOBRAMYCIN]	> 20
> 20	> 20	> 20	> 20	> 20	> 20	> 20	> 20	CC[C@@]1(O)C(=O)OCc2c1cc1n(c2=O)Cc2cc3c(CN(C)C)c(O)ccc3nc2-1 [TOPOTECAN HYDROCHLORIDE]	0.218
20 (≈ 3.91 µg/mL)	> 20	> 20	> 20	> 20	> 20	> 20	> 20	NC(=S)N/N=C/c1ncccc1N [TRIAPINE]	2.83
0.625 (≈ 0.231 µg/mL)	> 20	1.25 (≈ 0.462 µg/mL)	10 (≈ 3.69 µg/mL)	> 20	5 (≈ 1.85 µg/mL)	> 20	> 20	COc1cc(NCc2ccc3nc(N)nc(N)c3c2C)cc(OC)c1OC [TRIMETREXATE]	> 20
> 20	> 20	> 20	> 20	> 20	> 20	> 20	> 20	Cc1onc(-c2ccccc2)c1-c1ccc(S(N)(=O)=O)cc1 [VALDECOXIB]	> 20
> 20	> 20	> 20	> 20	> 20	> 20	> 20	> 20	O=C(/C=C\n1cnc(-c2cc(C(F)(F)F)cc(C(F)(F)F)c2)n1)NNc1ccccn1 [VERDINEXOR]	> 20
> 20	> 20	> 20	> 20	> 20	> 20	> 20	> 20	CCOC(=O)N[C@@H]1CC[C@@H]2[C@@H](C1)C[C@H]1C(=O)O[C@H](C)[C@H]1[C@H]2/C=C/c1ccc(-c2cccc(F)c2)cn1 [VORAPAXAR]	> 20

SMILES	MIC (Pseudomonas aeruginosa [1]) [µM]	MIC (Cryptococcus neoformans) [µM]	MIC (Staphylococcus aureus) [µM]	MIC (Escherichia coli) [µM]	MIC (Klebsiella pneumoniae) [µM]	MIC (Pseudomonas aeruginosa [2]) [µM]	MIC (Acinetobacter baumannii) [µM]	MIC (Candida albicans) [µM]	CC50 (HEK293) [µM]
Cn1cncc1[C@@](N)(c1ccc(Cl)cc1)c1ccc2c(c1)c(-c1cccc(Cl)c1)cc(=O)n2C [TIPIFARNIB]	> 20	> 20	20 (≈ 9.79 µg/mL)	> 20	> 20	> 20	> 20	> 20	8.09
